From ChEMBL document CHEMBL3046189, “Synthesis of potent inhibitors of histidinol dehydrogenase” (Bioorg Med Chem Lett, 1996)
Active and inactive are the calls of the source. No cut-off for these calls is given here.

Tests used:
[1] = Ratio of IC50 for Escherichia coli histidinol dehydrogenase to IC50 for cabbage histidinol dehydrogenase
[2] = molecular target: T1, Histidinol dehydrogenase, chloroplastic (Brassica oleracea var. capitata, UniProt P24226); test: Inhibition of Brassica oleracea (cabbage) histidinol dehydrogenase pre-incubated for 10 min before substrate histidinol addition by spectrophotometry
T1 sequence (P24226 whole entry): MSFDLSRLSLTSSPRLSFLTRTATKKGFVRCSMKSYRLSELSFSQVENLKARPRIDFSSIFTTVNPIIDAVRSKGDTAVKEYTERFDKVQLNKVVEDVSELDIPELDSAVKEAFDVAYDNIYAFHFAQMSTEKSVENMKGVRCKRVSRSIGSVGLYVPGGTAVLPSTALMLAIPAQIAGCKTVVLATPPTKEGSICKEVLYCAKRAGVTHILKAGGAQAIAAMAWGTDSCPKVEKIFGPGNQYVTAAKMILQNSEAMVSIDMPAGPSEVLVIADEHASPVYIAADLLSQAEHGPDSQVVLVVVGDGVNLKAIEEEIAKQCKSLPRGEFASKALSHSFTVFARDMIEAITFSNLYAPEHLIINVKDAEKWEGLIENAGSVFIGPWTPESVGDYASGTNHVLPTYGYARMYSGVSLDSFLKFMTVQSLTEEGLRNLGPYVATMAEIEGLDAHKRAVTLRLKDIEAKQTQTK

Histidinol dehydrogenase [3] = molecular target: T2, Histidinol dehydrogenase (Escherichia coli (strain K12), UniProt P06988); test: Inhibition of Escherichia coli histidinol dehydrogenase preincubated for 10 min before substrate histidinol addition by spectrophotometry
T2 sequence (P06988 whole entry): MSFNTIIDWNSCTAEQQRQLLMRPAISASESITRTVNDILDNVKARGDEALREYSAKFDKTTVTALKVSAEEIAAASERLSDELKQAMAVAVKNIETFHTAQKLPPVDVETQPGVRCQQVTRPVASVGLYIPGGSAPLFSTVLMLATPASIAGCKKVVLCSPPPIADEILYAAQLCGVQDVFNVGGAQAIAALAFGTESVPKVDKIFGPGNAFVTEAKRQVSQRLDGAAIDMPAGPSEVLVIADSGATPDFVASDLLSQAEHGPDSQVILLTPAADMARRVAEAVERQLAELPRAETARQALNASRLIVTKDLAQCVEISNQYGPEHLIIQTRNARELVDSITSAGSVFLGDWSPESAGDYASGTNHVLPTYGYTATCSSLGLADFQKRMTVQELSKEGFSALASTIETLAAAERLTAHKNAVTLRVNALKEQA

[4] = molecular target: T3, Histidinol dehydrogenase, chloroplastic (Brassica oleracea var. capitata) (UniProt P24226); test: Ratio of histidinol IC50 to compound IC50 for Brassica oleracea (cabbage) histidinol dehydrogenase
T3 sequence (whole entry): T1 sequence (P24226 whole entry)

Oryza sativa [5] = test: Inhibition of root growth in Oryza sativa (rice) seedlings grown in agar containing basal salts; type: functional, organism-based
Histidinol dehydrogenase [6] = molecular target: T2, Histidinol dehydrogenase; test: Binding affinity to Escherichia coli histidinol dehydrogenase
Oryza sativa [7] = test: Inhibition of root growth in Oryza sativa (rice) seedlings grown in agar containing basal salts in presence of histidine; type: functional, organism-based

Structure (SMILES) | IC50 [2] [nM] | IC50 (Histidinol dehydrogenase [3]) [nM] | also measured
N[C@@H](Cc1c[nH]cn1)C(=O)Cc1ccccc1 | 100 | 1000 | Ratio IC50 [1]: 10; Ki [2]: 7.6 nM
N[C@@H](Cc1c[nH]cn1)C(=O)Cc1cccc(O)c1 | 300 | – | –
N[C@@H](Cc1c[nH]cn1)C(=O)CCCc1ccccc1 | – | 80000 | –
Nc1ccc(CC(=O)[C@@H](N)Cc2c[nH]cn2)cc1 | 500 | – | –
COc1ccc(CC(=O)[C@@H](N)Cc2c[nH]cn2)cc1 | 1000 | – | –
N[C@@H](Cc1c[nH]cn1)C(=O)Cc1ccc(Cl)cc1 | 300 | – | –
CCC(=O)C(N)Cc1c[nH]cn1 (stereo unspecified) | – | > 100000 | –
N[C@@H](Cc1c[nH]cn1)C(=O)Cc1ccc(Br)cc1 | 40 | – | Ratio IC50 [4]: > 1000; growth inhibition (GI) (Oryza sativa [5]): Active; Ki [2]: 4.4 nM
N[C@@H](Cc1c[nH]cn1)C(=O)Cc1ccc(-c2ccccc2)cc1 | 40 | – | Ratio IC50 [4]: > 1000; Ki [2]: 2.9 nM
N[C@@H](Cc1c[nH]cn1)C(=O)Cc1ccc(Br)c(Br)c1 | 50 | – | –
N[C@H](C=O)Cc1c[nH]cn1 [L-HISTIDINAL] | – | – | Kd (Histidinol dehydrogenase [6]): 1.4 nM
N[C@@H](Cc1c[nH]cn1)C(=O)CCc1ccccc1 | – | 100000 | –
N[C@@H](Cc1c[nH]cn1)C(=O)Cc1cccc(Br)c1 | 100 | – | –
N[C@@H](Cc1c[nH]cn1)C(=O)c1ccccc1 | – | > 100000 | –
N[C@@H](Cc1c[nH]cn1)C(=O)Cc1ccccc1Br | 1000 | – | –
Nc1cc(CC(=O)[C@@H](N)Cc2c[nH]cn2)ccc1Br | 8000 | – | –
N[C@@H](Cc1c[nH]cn1)C(=O)C(F)(F)C(F)(F)F | – | 20000 | –
CC(=O)C(N)Cc1c[nH]cn1 (stereo unspecified) | – | 10000 | Ki (Histidinol dehydrogenase [3]): 5000 nM
Nc1cccc(CC(=O)[C@@H](N)Cc2c[nH]cn2)c1 | 50 | – | growth inhibition (GI) (Oryza sativa [7]): inactive; growth inhibition (GI) (Oryza sativa [5]): Active; Ki [2]: 7.4 nM
